The results in this text go back to the NIST ThermoML archive (doi:10.1021/je800246v).

The series in a line: activity coefficient (dimensionless); of the first substance listed, at infinite dilution; xn = mol fraction of the nth substance listed. The conditions noted are these: 101 kPa, Liquid, Chromatography, x1 = 0.

The structures appear in SMILES notation. Numbers after ± are expanded uncertainties.

Consider `CCCC(C)O` (stereo unspecified) [pentan-2-ol] + CCCCn1cc[n+](C)c1.F[P-](F)(F)(F)(F)F, for which the activity coefficient runs as follows: (315.9 K) 5.66 ± 0.59; (325.3 K) 4.99 ± 0.52; (334.8 K) 4.38 ± 0.46.
As to `CC(C)=O` [acetone] + CCCC[n+]1ccc(C)cc1.F[B-](F)(F)F, the activity coefficient (306.6 K) stood at 0.995 ± 0.1, the activity coefficient (315.9 K) was 1.01 ± 0.1 and the activity coefficient (325.3 K) turned out to be 1.03 ± 0.1.
Consider `CCC(C)O` (stereo unspecified) [butan-2-ol] + CCCCn1cc[n+](C)c1.F[P-](F)(F)(F)(F)F, for which the activity coefficient reads like this: (315.9 K) 4.29 ± 0.45; (325.3 K) 3.78 ± 0.4; (334.8 K) 3.37 ± 0.35.
As for `CCC(O)CC` [3-pentanol] + CCCCn1cc[n+](C)c1.F[P-](F)(F)(F)(F)F, the activity coefficient runs as follows: (315.9 K) 4.7 ± 0.49; (325.3 K) 4.14 ± 0.44; (334.8 K) 3.78 ± 0.4.
For `CC(C)CO` [2-methyl-1-propanol] + CCCCn1cc[n+](C)c1.F[P-](F)(F)(F)(F)F, in that order: 5.03 ± 0.53, 4.38 ± 0.46 and 3.84 ± 0.4.
Regarding `CO` [methanol] + CCCC[n+]1ccc(C)cc1.F[B-](F)(F)F, the activity coefficient reads like this: (306.6 K) 1.01 ± 0.1; (315.9 K) 0.98 ± 0.1; (325.3 K) 0.907 ± 0.093.
For `CCCCO` [butan-1-ol] + CCCCn1cc[n+](C)c1.F[P-](F)(F)(F)(F)F, the activity coefficient worked out at 5.59 ± 0.59 (315.9 K), 4.77 ± 0.5 (325.3 K) and 4.24 ± 0.45 (334.8 K).
With `CCO` [ethanol] + CCCC[n+]1ccc(C)cc1.F[B-](F)(F)F, the activity coefficient by setting is: (306.6 K) 1.7 ± 0.18; (315.9 K) 1.62 ± 0.17; (325.3 K) 1.49 ± 0.15.
With `CC(C)O` [propan-2-ol] + CCCCn1cc[n+](C)c1.F[P-](F)(F)(F)(F)F, the activity coefficient came out at 3.65 ± 0.38 (315.9 K), 3.16 ± 0.33 (325.3 K) and 2.85 ± 0.3 (334.8 K).
Turning to `CCO` [ethanol] + CCCCn1cc[n+](C)c1.F[P-](F)(F)(F)(F)F, the activity coefficient is 3.02 ± 0.32 (315.9 K), 2.69 ± 0.28 (325.3 K) and 2.47 ± 0.26 (334.8 K).
As for `CCC(C)=O` [butanone] + CCCCn1cc[n+](C)c1.F[P-](F)(F)(F)(F)F, the activity coefficient is, setting by setting: (315.9 K) 0.987 ± 0.1; (325.3 K) 0.99 ± 0.1; (334.8 K) 0.983 ± 0.1.
As to `CCC(C)=O` [butanone] + CCCC[n+]1ccc(C)cc1.F[B-](F)(F)F, the activity coefficient was found to be 1.53 ± 0.16 (306.6 K), 1.57 ± 0.16 (315.9 K) and 1.59 ± 0.17 (325.3 K).
Take `Cc1ccc(C)cc1` [1,4-dimethylbenzene] + CCCCn1cc[n+](C)c1.F[P-](F)(F)(F)(F)F: the activity coefficient was found to be 2.27 ± 0.24 (315.9 K), 2.24 ± 0.24 (325.3 K) and 2.28 ± 0.24 (334.8 K).
Turning to `Cc1ccccc1` [toluene] + CCCCn1cc[n+](C)c1.F[P-](F)(F)(F)(F)F, the activity coefficient by setting is: (315.9 K) 1.71 ± 0.18; (325.3 K) 1.59 ± 0.17; (334.8 K) 1.71 ± 0.18.
For the molecule `CC(=O)CC(C)=O` [2,4-pentanedione] + CCCCn1cc[n+](C)c1.F[P-](F)(F)(F)(F)F, the activity coefficient was 1.15 ± 0.12 (315.9 K), 1.07 ± 0.11 (325.3 K) and 1.03 ± 0.1 (334.8 K).
For `Cc1cccc(C)c1` [1,3-dimethylbenzene] + CCCCn1cc[n+](C)c1.F[P-](F)(F)(F)(F)F, in that order: 2.38 ± 0.25, 2.43 ± 0.26 and 2.36 ± 0.25.
For `CCCCCO` [pentan-1-ol] + CCCCn1cc[n+](C)c1.F[P-](F)(F)(F)(F)F, in that order: 9.71 ± 1, 8.01 ± 0.84 and 6.47 ± 0.68.
For `CCCO` [propan-1-ol] + CCCCn1cc[n+](C)c1.F[P-](F)(F)(F)(F)F, in that order: 4.01 ± 0.42, 3.46 ± 0.36 and 3.18 ± 0.33.
For `CC(C)=O` [acetone] + CCCCn1cc[n+](C)c1.F[P-](F)(F)(F)(F)F, the activity coefficient was 0.707 ± 0.074 (315.9 K), 0.709 ± 0.074 (325.3 K) and 0.699 ± 0.073 (334.8 K).
For the molecule `Cc1ccccc1C` [1,2-dimethylbenzene] + CCCCn1cc[n+](C)c1.F[P-](F)(F)(F)(F)F, the activity coefficient by setting is: (315.9 K) 2.37 ± 0.25; (325.3 K) 2.21 ± 0.23; (334.8 K) 2.2 ± 0.23.
For `CO` [methanol] + CCCCn1cc[n+](C)c1.F[P-](F)(F)(F)(F)F, in that order: 2.16 ± 0.23, 1.95 ± 0.2 and 1.81 ± 0.19.
For `CC(C)CCO` [3-methylbutan-1-ol] + CCCCn1cc[n+](C)c1.F[P-](F)(F)(F)(F)F, in that order: 7.71 ± 0.81, 6.34 ± 0.67 and 5.2 ± 0.55.
